Assay results as given in US9221808B2, “Pyridylthiazole-based ureas as inhibitors of Rho associated protein kinase (ROCK) and methods of use” (H. Lee Moffitt Cancer Center and Research Institute, Inc., priority 2010, dated 2015).
Values joined by “and” are separate entries in the source; they are usually repeats but may differ in a detail not shown here. Equal values may be shown once. Where a name gives a salt, the structure may show the parent alone. Read-outs that look alike come from different tables or passages of the source.

Legend:
ROCK1 = ROCK1 (Homo sapiens (Human), UniProt Q13464); assay: FRET-based Z'-Lyte kinase assay, ROCK1; format: biochemical; details: for IC50: read-out: IC50 ± SD (μM) ROCK1; for inhibition at 50 µM: read-out: ROCK1 % inhibition @ 50 μM;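 on all read-outs here: kinase phosphorylates a coumarin/fluorescein-labelled FRET peptide, then a protease cleaves unphosphorylated peptide, progress read as donor to acceptor emission ratio after 400 nm excitation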
Source text: (§1) A) In the primary reaction, the Rho kinases phosphorylates a single serine or threonine residue in a synthetic FRET-peptide. This FRET-peptide is doubly labeled with a fluorophore at each end—coumarin (the FRET donor) on one end and fluorescein (the FRET acceptor) on the other—and also contains a single phosphorylation site which either overlaps with or lies adjacent to the proteolytic site. B) In the secondary reaction, a site-specific protease recognizes and cleaves the non-phosphorylated FRET-peptide. Cleavage disrupts FRET between the donor and acceptor fluorophores on the FRET-peptide, whereas uncleaved, phosphorylated FRET-peptides maintain FRET. Kinases phosphorylated FRET-peptides cannot be cleaved by the protease. […] Cleavage disrupts FRET and causes a decrease in the fluorescein fluorescence signal and a strong increase in the coumarin fluorescence signal. Therefore the extension of the phosphprylation can be measured by FRET-signal remaining the protease reaction. The assay uses a ratiometric method, which calculates the ratio of donor emission to acceptor emission (the emission ratio) after excitation of the donor fluorophore at 400 nm, to quantitate reaction progress.
(§2) All compounds were systematically screened against ROCK1 and ROCK2.

ROCK2 = ROCK2 (Homo sapiens (Human), UniProt O75116); assay: FRET-based Z'-Lyte kinase assay, ROCK2; format: biochemical; details: read-out: IC50 ± SD (μM) ROCK2;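 further: kinase phosphorylates a coumarin/fluorescein FRET peptide, then a protease cleaves unphosphorylated peptide, read as donor/acceptor emission ratio after 400 nm excitation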
Chain of ROCK2 (O75116 whole entry, species assumed): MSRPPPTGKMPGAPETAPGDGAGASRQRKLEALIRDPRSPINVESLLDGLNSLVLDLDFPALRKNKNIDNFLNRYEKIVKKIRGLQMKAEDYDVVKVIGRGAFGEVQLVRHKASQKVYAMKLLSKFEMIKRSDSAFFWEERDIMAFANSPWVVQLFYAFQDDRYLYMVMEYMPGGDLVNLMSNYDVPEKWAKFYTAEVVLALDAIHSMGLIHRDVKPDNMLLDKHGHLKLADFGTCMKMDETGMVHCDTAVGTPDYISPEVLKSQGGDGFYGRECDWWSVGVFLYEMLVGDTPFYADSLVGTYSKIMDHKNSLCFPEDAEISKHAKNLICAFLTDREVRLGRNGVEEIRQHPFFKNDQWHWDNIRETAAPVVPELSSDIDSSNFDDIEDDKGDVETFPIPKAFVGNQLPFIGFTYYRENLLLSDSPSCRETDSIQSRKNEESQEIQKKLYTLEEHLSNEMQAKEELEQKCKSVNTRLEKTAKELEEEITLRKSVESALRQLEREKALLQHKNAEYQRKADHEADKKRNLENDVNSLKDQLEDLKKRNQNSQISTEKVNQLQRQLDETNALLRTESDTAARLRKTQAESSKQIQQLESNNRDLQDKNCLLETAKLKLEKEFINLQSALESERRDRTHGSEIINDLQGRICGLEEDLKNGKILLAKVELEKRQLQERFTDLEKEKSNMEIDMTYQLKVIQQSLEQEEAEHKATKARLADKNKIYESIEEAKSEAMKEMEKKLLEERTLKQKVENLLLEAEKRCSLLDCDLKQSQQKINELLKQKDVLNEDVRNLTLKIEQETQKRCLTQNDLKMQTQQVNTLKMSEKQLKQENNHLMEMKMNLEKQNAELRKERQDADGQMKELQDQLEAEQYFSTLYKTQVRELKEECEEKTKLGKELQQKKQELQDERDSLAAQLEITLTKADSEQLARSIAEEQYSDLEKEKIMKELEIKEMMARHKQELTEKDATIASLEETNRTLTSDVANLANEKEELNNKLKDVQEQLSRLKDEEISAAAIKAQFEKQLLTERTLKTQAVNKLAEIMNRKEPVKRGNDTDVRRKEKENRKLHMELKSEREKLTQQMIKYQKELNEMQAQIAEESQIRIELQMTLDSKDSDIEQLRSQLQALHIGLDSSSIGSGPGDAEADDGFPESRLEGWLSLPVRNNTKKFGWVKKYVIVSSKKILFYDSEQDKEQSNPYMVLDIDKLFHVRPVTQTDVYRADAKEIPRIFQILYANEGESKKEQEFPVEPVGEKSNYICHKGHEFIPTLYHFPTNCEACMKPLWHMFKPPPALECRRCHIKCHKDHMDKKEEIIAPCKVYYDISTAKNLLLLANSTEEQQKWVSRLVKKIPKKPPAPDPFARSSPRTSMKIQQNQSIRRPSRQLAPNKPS
Source text: as §1, §2

Chain of ROCK1 (Q13464 whole entry, species assumed): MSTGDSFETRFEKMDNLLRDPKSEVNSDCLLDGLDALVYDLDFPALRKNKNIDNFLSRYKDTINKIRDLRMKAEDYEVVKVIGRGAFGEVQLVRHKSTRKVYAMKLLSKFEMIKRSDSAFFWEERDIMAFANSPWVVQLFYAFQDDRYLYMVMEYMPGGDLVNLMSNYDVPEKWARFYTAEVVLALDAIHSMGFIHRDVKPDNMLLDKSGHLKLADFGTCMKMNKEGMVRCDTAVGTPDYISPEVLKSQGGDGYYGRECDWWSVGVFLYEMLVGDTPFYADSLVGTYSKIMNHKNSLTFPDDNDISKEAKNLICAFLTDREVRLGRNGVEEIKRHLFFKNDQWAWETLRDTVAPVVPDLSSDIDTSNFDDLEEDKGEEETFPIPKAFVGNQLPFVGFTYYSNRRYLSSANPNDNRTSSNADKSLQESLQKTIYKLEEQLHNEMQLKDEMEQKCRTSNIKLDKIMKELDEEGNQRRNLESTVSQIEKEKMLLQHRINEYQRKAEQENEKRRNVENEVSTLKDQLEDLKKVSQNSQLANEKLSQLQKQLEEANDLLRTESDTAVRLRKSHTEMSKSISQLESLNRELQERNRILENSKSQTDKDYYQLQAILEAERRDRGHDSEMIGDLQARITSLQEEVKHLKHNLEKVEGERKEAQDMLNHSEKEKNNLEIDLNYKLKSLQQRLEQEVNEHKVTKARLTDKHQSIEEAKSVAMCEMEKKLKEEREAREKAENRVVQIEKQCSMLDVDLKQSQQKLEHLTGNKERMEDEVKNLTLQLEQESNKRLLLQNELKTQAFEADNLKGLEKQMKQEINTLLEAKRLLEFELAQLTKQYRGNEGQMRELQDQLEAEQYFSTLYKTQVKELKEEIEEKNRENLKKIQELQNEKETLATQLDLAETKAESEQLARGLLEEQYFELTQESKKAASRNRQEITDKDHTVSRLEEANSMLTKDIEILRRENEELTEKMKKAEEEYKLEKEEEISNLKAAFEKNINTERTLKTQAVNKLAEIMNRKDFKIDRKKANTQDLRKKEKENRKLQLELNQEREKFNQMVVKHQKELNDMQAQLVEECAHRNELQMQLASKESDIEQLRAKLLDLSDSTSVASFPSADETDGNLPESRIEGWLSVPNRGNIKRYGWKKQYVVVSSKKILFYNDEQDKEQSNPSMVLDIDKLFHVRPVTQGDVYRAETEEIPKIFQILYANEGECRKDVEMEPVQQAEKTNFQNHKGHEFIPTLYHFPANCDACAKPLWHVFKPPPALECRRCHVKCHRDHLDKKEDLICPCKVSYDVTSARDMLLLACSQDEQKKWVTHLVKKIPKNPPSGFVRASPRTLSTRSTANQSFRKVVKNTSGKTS

IC50 (ROCK1)	IC50 (ROCK2)	inhibition at 50 µM (ROCK1; 50 μM compound)	Compound	further results
–	–	–	COc1ccc(CNC(=O)Nc2nc(-c3ccncc3)cs2)cc1.Cl [Compound 1am-HCl, 1-(4-methoxybenzyl)-3-(4-(pyridin-4-yl)thiazol-2-yl)urea hydrochloride]	ROCK1 % inhibition @ 50 μM (ROCK1; 50 μM compound): ROCK1 % inhibition @ 50 μM: 15.26 ± 0.91
0.57 ± 0.05 µM	0.19 µM	–	O=C(NCc1ccc(F)cc1)Nc1nc(-c2ccncc2)cs1 [Compound 1ak, 1-(4-Fluorobenzyl)-3-(4-(pyridin-4-yl)thiazol-2-yl)urea]	–
29.5 ± 3.28 µM	11.5 ± 1.24 µM	–	COC[C@H](NC(=O)Nc1nc(-c2ccncc2)cs1)c1ccccc1 [Compound 1bk, (R)-1-(2-Methoxy-1-phenylethyl)-3-(4-(pyridin-4-yl)thiazol-2-yl)urea]	–
–	–	24.3%	O=C(Nc1nc(-c2ccncc2)cs1)N1CCN(Cc2ccccc2)C[C@@H]1Cc1ccccc1 [Compound 12b, (S)-2,4-Dibenzyl-N-(4-(pyridin-4-yl)thiazol-2-yl)piperazine-1-carboxamide]	–
3.87 ± 0.351 µM	1.95 ± 0.389 µM	–	O=C(Nc1nc(-c2ccncc2)cs1)N1CCc2ccccc2C1 [Compound 1cq, N-(4-(Pyridin-4-yl)thiazol-2-yl)-3,4-dihydroisoquinoline-2(1H)-carboxamide]	–
0.14 µM and 0.1 µM	0.06 µM and 0.05 µM	–	O=C(NCc1cccc(F)c1)Nc1nc(-c2ccncc2)cs1 [Compound 1aj, 1-(3-Fluorobenzyl)-3-(4-(pyridin-4-yl)thiazol-2-yl)urea]	–
–	–	16.3%	O=C(NC(=O)c1ccccc1)Nc1nc(-c2ccncc2)cs1 [Compound 8, N-(4-(Pyridin-4-yl)thiazol-2-ylcarbamoyl)benzamide]	–
3.36 ± 1 µM	0.68 ± 0.43 µM	–	CCCOc1cccc(CNC(=O)Nc2nc(-c3ccncc3)cs2)c1 [Compound 1bx, 1-(3-propoxybenzyl)-3-(4-(pyridin-4-yl)thiazol-2-yl)urea]	–
–	–	10.4%	O=C(Nc1ccccc1)Nc1nc(-c2ccncc2)cs1 [Compound 6a, 1-Phenyl-3-(4-(pyridin-4-yl)thiazol-2-yl)urea]	–
–	–	–	COc1cccc(CNC(=O)Nc2nc(-c3ccncc3)cs2)c1 [Compound 1af-Mes, 1-(3-methoxybenzyl)-3-(4-(pyridin-4-yl)thiazol-2-yl)urea methanesulfonate]	IC50 (ROCK1; methanesulfonate): 0.03 ± 0.01 µM; IC50 (ROCK2; methanesulfonate): 0.01 µM
–	–	-6.26%	O=C(NCc1cc(Cl)cc(Cl)c1)Nc1nc(-c2ccncc2)cs1 [Compound 1cg, 1-(3,5-dichlorobenzyl)-3-(4-(pyridin-4-yl)thiazol-2-yl)urea]	–
30 ± 10 µM	11 ± 6.74 µM	–	C[C@H](NC(=O)Nc1nc(-c2ccncc2)cs1)c1cccc(F)c1 [Compound 1cf, (S)-1-(1-(3-fluorophenyl)ethyl)-3-(4-(pyridin-4-yl)thiazol-2-yl)urea]	–
0.47 ± 0.013 µM	0.24 ± 0.04 µM	–	CNc1cccc(CNC(=O)Nc2nc(-c3ccncc3)cs2)c1 [Compound 1bq, 1-(3-(Methylamino)benzyl)-3-(4-(pyridin-4-yl)thiazol-2-yl)urea]	–
–	–	7.48%	O=C(NCc1cccc(OC(F)(F)F)c1)Nc1nc(-c2ccncc2)cs1 [Compound 1br, 1-(4-(Pyridin-4-yl)thiazol-2-yl)-3-(3-(trifluoromethoxy)benzyl)urea]	–
6.99 ± 1.61 µM	3.82 ± 1.53 µM	–	O=C(Nc1nc(-c2ccncc2)cs1)N[C@@H]1CCCc2ccccc21 [Compound 1cv, (R)-1-(4-(Pyridin-4-yl)thiazol-2-yl)-3-(1,2,3,4-tetrahydronaphthalen-1-yl)urea]	–
0.06 µM and 0.027 µM	0.01 µM and 0.011 µM	–	COc1cccc(CNC(=O)Nc2nc(-c3ccncc3)cs2)c1 [Compound 1af, 1-(3-Methoxybenzyl)-3-(4-(pyridin-4-yl)thiazol-2-yl)urea]	–
2.49 ± 1.07 µM	3.75 ± 0.39 µM	–	O=C(Nc1nc(-c2ccncc2)cs1)Nc1ccccc1Cl [Compound 6e, 1-(2-Chlorophenyl)-3-(4-(pyridin-4-yl)thiazol-2-yl)urea]	–
1.17 ± 0.15 µM	0.38 ± 0.03 µM	–	O=C(NCc1ccco1)Nc1nc(-c2ccncc2)cs1 [Compound 1ak1, 1-(Furan-2-ylmethyl)-3-(4-(pyridin-4-yl)thiazol-2-yl)urea]	–
0.07 ± 0.005 µM	0.03 ± 0.009 µM	–	COC[C@@H](NC(=O)Nc1nc(-c2ccncc2)cs1)c1ccccc1 [Compound 1bj, (S)-1-(2-Methoxy-1-phenylethyl)-3-(4-(pyridin-4-yl)thiazol-2-yl)urea]	fold loss of potency compared to 1at (ROCK1; comparator 1at): 3.5 fold
0.009 µM	–	–	O=C(NCc1cccc(O)c1)Nc1nc(-c2ccncc2)cs1 [Compound 1bo-HCl, 1-(3-hydroxybenzyl)-3-(4-(pyridin-4-yl)thiazol-2-yl)urea]	–
0.05 ± 0.009 µM	0.02 ± 0.008 µM	–	Nc1cccc(CNC(=O)Nc2nc(-c3ccncc3)cs2)c1 [Compound 1ay, 1-(3-Aminobenzyl)-3-(4-(pyridin-4-yl)thiazol-2-yl)urea]	fold decrease in activity compared to 1bo (ROCK1; comparator 1bo (comparator for 1bn not stated)): 6 fold
1.88 ± 0.17 µM	0.4 ± 0.07 µM	–	O=C(NCc1ccc(Cl)cc1Cl)Nc1nc(-c2ccncc2)cs1 [Compound 1ag, 1-(2,4-Dichlorobenzyl)-3-(4-(pyridin-4-yl)thiazol-2-yl)urea]	–

IC50 (ROCK1)	IC50 (ROCK2)	inhibition at 50 µM (ROCK1; 50 μM compound)	Compound	further results
0.91 ± 0.15 µM	0.49 ± 0.07 µM	–	O=C(NCc1cccnc1)Nc1nc(-c2ccncc2)cs1 [Compound 1ao, 1-(Pyridin-3-ylmethyl)-3-(4-(pyridin-4-yl)thiazol-2-yl)urea]	–
0.09 ± 0.02 µM	0.03 ± 0.01 µM	–	CC[C@@H](NC(=O)Nc1nc(-c2ccncc2)cs1)c1ccccc1 [Compound 1be, (R)-1-(1-Phenylpropyl)-3-(4-(pyridin-4-yl)thiazol-2-yl)urea]	fold decrease in ROCK1 activity/potency compared to parent compound 1aa (ROCK1; comparator 1aa): 3.5 fold; fold more potent/active than its enantiomer (ROCK1; comparator: enantiomer (1ai for 1ah, 1bf for 1be)): 745 fold
0.55 ± 0.32 µM	0.07 ± 0.02 µM	–	C[C@@H](NC(=O)Nc1nc(-c2ccncc2)cs1)c1cccc(Cl)c1 [Compound 1cb, (R)-1-(1-(3-chlorophenyl)ethyl)-3-(4-(pyridin-4-yl)thiazol-2-yl)urea]	–
2.07 ± 0.29 µM	1.47 ± 0.13 µM	–	O=C(NCc1ccncc1)Nc1nc(-c2ccncc2)cs1 [Compound 1aq, 1-(4-(Pyridin-4-yl)thiazol-2-yl)-3-(pyridin-4-ylmethyl)urea]	–
0.62 ± 0.019 µM	0.28 ± 0.05 µM	–	O=C(NCc1ccccc1O)Nc1nc(-c2ccncc2)cs1 [Compound 1bp, 1-(2-Hydroxybenzyl)-3-(4-(pyridin-4-yl)thiazol-2-yl)urea]	–
1.4 ± 0.11 µM	0.47 ± 0.03 µM	–	COc1ccccc1CNC(=O)Nc1nc(-c2ccncc2)cs1 [Compound 1ad, 1-(2-Methoxybenzyl)-3-(4-(pyridin-4-yl)thiazol-2-yl)urea]	–
–	–	-0.21%	O=C(Nc1nc(-c2ccncc2)cs1)N1CCN(CC2CCCO2)CC1 (stereo not drawn) [Compound 12f, N-(4-(Pyridin-4-yl)thiazol-2-yl)-4-((tetrahydrofuran-2-yl)methyl)piperazine-1-carboxamide]	–
28.2 ± 1.84 µM	52.5 ± 1.75 µM	–	O=C(Nc1nc(-c2ccncc2)cs1)N[C@@H]1CCc2ccccc21 [Compound 1ct, (R)-1-(2,3-Dihydro-1H-inden-1-yl)-3-(4-(pyridin-4-yl)thiazol-2-yl)urea]	–
–	–	8.06%	O=C(Nc1ccc(F)cc1)Nc1nc(-c2ccncc2)cs1 [Compound 6c, 1-(4-Fluorophenyl)-3-(4-(pyridin-4-yl)thiazol-2-yl)urea]	–
–	–	35%	O=C(Nc1nc(-c2ccncc2)cs1)N1CCN(C(=O)c2ccco2)CC1 [Compound 12c, 4-(Furan-2-carbonyl)-N-(4-(pyridin-4-yl)thiazol-2-yl)piperazine-1-carboxamide]	–
–	–	1.09%	COc1ccc([C@H](C)NC(=O)Nc2nc(-c3ccncc3)cs2)cc1 [Compound 1by, (S)-1-(1-(4-methoxyphenyl)ethyl)-3-(4-(pyridin-4-yl)thiazol-2-yl)urea]	–
–	–	40.9%	O=C(NCc1nc2ccccc2[nH]1)Nc1nc(-c2ccncc2)cs1 [Compound 1cs, 1-((1H-Benzo[d]imidazol-2-yl)methyl)-3-(4-(pyridin-4-yl)thiazol-2-yl)urea]	–
–	–	34.5%	O=C(NCc1ccc([N+](=O)[O-])cc1)Nc1nc(-c2ccncc2)cs1 [Compound 1az, 1-(4-Nitrobenzyl)-3-(4-(pyridin-4-yl)thiazol-2-yl)urea]	–
–	0.009 ± 0.007 µM	–	COc1cccc([C@@H](C)NC(=O)Nc2nc(-c3ccncc3)cs2)c1 [Compound 1bh, (R)-1-(1-(3-Methoxyphenyl)ethyl)-3-(4-(pyridin-4-yl)thiazol-2-yl)urea]	–
–	–	41.4%	O=C(Nc1nc(-c2ccncc2)cs1)N1CCN(c2ccncn2)CC1 [Compound 12d, N-(4-(Pyridin-4-yl)thiazol-2-yl)-4-(pyrimidin-4-yl)piperazine-1-carboxamide]	–
–	–	40.9%	O=C(Nc1nc(-c2ccncc2)cs1)NC1Cc2ccccc2C1 [Compound 1cr, 1-(2,3-Dihydro-1H-inden-2-yl)-3-(4-(pyridin-4-yl)thiazol-2-yl)urea]	–
–	–	14%	O=C(Nc1nc(-c2ccncc2)cs1)N1CCN(c2cccnc2)CC1 [Compound 12e, 4-(Pyridin-3-yl)-N-(4-(pyridin-4-yl)thiazol-2-yl)piperazine-1-carboxamide]	–
–	–	9.95%	COc1cc(CNC(=O)Nc2nc(-c3ccncc3)cs2)cc(OC)c1 [Compound 1bb, 1-(3,5-Dimethoxybenzyl)-3-(4-(pyridin-4-yl)thiazol-2-yl)urea]	–
–	–	14.5%	O=C(Nc1nc(-c2ccncc2)cs1)Nc1ccc(F)cc1F [Compound 6b, 1-(2,4-Difluorophenyl)-3-(4-(pyridin-4-yl)thiazol-2-yl)urea]	–
–	–	13.3%	O=C(Nc1nc(-c2ccncc2)cs1)Nc1ccccc1F [Compound 6d, 1-(2-Fluorophenyl)-3-(4-(pyridin-4-yl)thiazol-2-yl)urea]	–
> 50 µM	–	–	C[C@H](NC(=O)Nc1nc(-c2ccncc2)cs1)c1cccc(Cl)c1 [Compound 1ce, (S)-1-(1-(3-chlorophenyl)ethyl)-3-(4-(pyridin-4-yl)thiazol-2-yl)urea]	–
